Patent publication EP4813463A2, “TYK2 INHIBITORS AND COMPOSITIONS AND METHODS THEREOF” (Lynk Pharmaceuticals Co. Ltd., priority 2023, dated 2024)
Where two headings read alike, the source gives them in different places.

Experiments:
JAK1-JH2 domain = target: T1, JAK1-JH2 domain (Homo sapiens, UniProt P23458); assay: Binding activity test for JH2 domain of JAK1 (Tb-antibody/tracer FRET); conditions: JH2 domain enzyme; 60 min at 25°C, then 4°C overnight; read-out: JAK1 JH2 Binding IC50
T1 construct: JAK1-JH2 domain or TYK2-JH2 domain enzyme in assay buffer
T1 sequence (P23458 583-855 limits assumed): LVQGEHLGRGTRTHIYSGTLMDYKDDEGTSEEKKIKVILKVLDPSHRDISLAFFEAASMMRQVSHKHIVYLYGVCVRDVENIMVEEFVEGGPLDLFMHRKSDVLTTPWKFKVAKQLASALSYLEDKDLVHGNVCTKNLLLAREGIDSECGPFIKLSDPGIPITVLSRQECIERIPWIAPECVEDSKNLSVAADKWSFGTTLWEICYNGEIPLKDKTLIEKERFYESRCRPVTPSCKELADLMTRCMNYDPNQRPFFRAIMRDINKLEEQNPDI
Summary of the method: (§1)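 Competitive TR-FRET binding: compounds dispensed as an 11-point 3-fold dilution series, then Tb-labelled antibody and tracer added to the JH2 protein system. Incubated at 25°C, then overnight at 4°C; FRET signal read on Envision and IC50 (nM) derived.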

TYK2-JH2 domain = target: T2, TYK2-JH2 domain (Homo sapiens, UniProt P29597); assay: Binding activity test for JH2 domain of TYK2 (Tb-antibody/tracer FRET); conditions: for IC50: JH2 domain enzyme, 60 min at 25°C, then 4°C overnight, read-out: TYK2 JH2 Binding IC50; for JAK1/TYK2 selectivity: ratio of JAK1 JH2 to TYK2 JH2 binding IC50
T2 construct: JAK1-JH2 domain or TYK2-JH2 domain enzyme in assay buffer
T2 sequence (P29597 589-875 limits assumed): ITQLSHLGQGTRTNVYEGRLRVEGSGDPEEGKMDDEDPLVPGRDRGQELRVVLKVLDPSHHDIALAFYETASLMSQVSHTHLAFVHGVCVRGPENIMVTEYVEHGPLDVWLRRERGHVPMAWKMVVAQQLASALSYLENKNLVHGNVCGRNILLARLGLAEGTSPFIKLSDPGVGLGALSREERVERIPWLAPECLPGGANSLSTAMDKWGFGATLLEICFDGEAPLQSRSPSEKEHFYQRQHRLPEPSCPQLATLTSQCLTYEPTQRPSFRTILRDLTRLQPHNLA
Summary of the method: as §1

[1] = tested on: Ba/F3-FL-TYK2-P760L cells; assay: Anti-proliferative assay in engineered Ba/F3 cells (Cell-Titer Glo, 72 h); type: cell-based; conditions: 72 h compound treatment, concentration that causes 50% growth inhibition, read-out: Baf3-FL-T2P760L
Summary of the method: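 Ba/F3 cells carrying Tel-dimerization/JAK kinase fusion, IL-3-independent, in RPMI-1640 + 10% FBS; 9-point 3-fold dilutions from 20 µM (0.1% DMSO) added after 24 h, 72 h at 37 °C. Viability by Cell-Titer Glo ATP luminescence; % inhibition versus DMSO cells, blank-corrected, giving IC50.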

[2] = Microsomal metabolic stability assay; type: in vitro ADME; conditions: human, liver microsomes, pH 7.4, 0.5 mg/mL microsomal protein, 1 µM test article, 2 mM NADPH; for microsomal CLint at 1 µM: read-out: Human LM Clint; for half-life at 1 µM: read-out: Human LM T1/2
Procedure: Microsomes were pre-incubated with test compound or control compounds for 5 min at 37°C in 100 mM potassium phosphate buffer, pH 7.4, 1.0 mM EDTA. The reaction was initiated by addition of 15 µL of the NADPH regenerating system to 30 µL of each incubation mixture per time point. The final incubation condition was composed of 0.5 mg/mL microsomal protein, 1 µM test article/positive control, 2 mM NADPH. The 0-minute samples were prepared by addition of a 30 µL aliquot of each incubation mixture to 135 µL quench reagent to precipitate proteins. And then a 15 µL aliquot of the NADPH regenerating system was added. At 5, 15, 30 and 45 minutes, the reaction will be stopped by the addition of cold acetonitrile solution containing internal standard. The samples taken at all time points were centrifuged at 5000×g for 15 minutes. 50 µL of supernatant are taken into 96-well assay plates pre-added with 50 µL ultrapure water, and then analyzed by LC/MS/MS.
Concentrations of test articles, control compounds in the samples were determined by using LC/MS/MS method. Plotting of the chromatograms and peak area integrations are carried out by Analyst (AB Sciex).
In the determination of the in vitro elimination constant (ke) of the control compounds, the analyte/internal standard peak area ratios will be converted to percentage remaining (%Remaining) with the following equation: %Remaining = (Peak area ratio of analyte to IS at each time point)/(Peak area ratio of analyte to IS at t = 0) × 100% [formula]
The CLint of microsomes was calculated using the formula: CLint (mic)=0.693/T1/2 /mg microsome protein per mL. The slope was measured by the natural logarithm of the percentage of the residual compound and time, T1/2 was calculated according to the following formula. T = (0.693)/(−slope) [formula]

Compound	IC50 (JAK1-JH2 domain)	IC50 (TYK2-JH2 domain)	JAK1/TYK2 selectivity (TYK2-JH2 domain)	IC50 ([1]; Mus musculus, BaF3, 72 h)	microsomal CLint at 1 µM [2]	half-life at 1 µM [2]	IC50 [1]
COC(=O)c1cnc(NC(=O)C2CC2)cc1Nc1nn(C)c2ccc(C(O)C(F)(F)F)c(OC)c12 (stereo not drawn) [Example 48, Methyl 6-(cyclopropanecarboxamido)-4-((4-methoxy-1-methyl-5-(2,2,2-trifluoro-1-hydroxyethyl)-1H-indazol-3-yl)amino)nicotinate]	33.6 nM	0.166 nM	202.69	2.19 nM	19.3 µL/min/mg	1.2 h	
COC(=O)c1cnc(NC(=O)C2CC2)cc1Nc1nsc2ccc(C(OC)C(F)(F)F)c(OC)c12 (stereo not drawn) [Example 67, Methyl 6-(cyclopropanecarboxamido)-4-((4-methoxy-5-(2,2,2-trifluoro-1-methoxyethyl)benzo[d]isothiazol-3-yl)amino)nicotinate]		0.15 nM		2.5 nM	18.3 µL/min/mg	1.26 h	
[2H]C([2H])(C)C(=O)c1cnc(NC(=O)C2CC2)cc1Nc1nn(C)c2ccc(C(O)C(F)(F)F)c(OC)c12 (stereo not drawn) [Example 156, N-(4-((4-methoxy-1-methyl-5-(2,2,2-trifluoro-1-hydroxyethyl)-1H-indazol-3-yl)amino)-5-(propanoyl-2,2-d2)pyridin-2-yl)cyclopropanecarboxamide]	14.2 nM	0.163 nM	86.87	1.76 nM	26.2 µL/min/mg	0.881 h	
CCn1nc(Nc2cc(NC(=O)C3CC3)ncc2C(=O)OC)c2c(OC)c(C(OC)C(F)(F)F)ccc21 (single isomer, unassigned) [Example 66B, Methyl (S*)-6-(cyclopropanecarboxamido)-4-((1-ethyl-4-methoxy-5-(2,2,2-trifluoro-1-methoxyethyl)-1H-indazol-3-yl)amino)nicotinate]	90.7 nM	0.13 nM	719.87	12.5 nM	14.2 µL/min/mg	1.62 h	
[2H]C([2H])([2H])OC(c1ccc2c(c(Nc3cc(NC(=O)C4CC4)ncc3C(=O)OC)nn2C([2H])([2H])[2H])c1OC)C(F)F (stereo not drawn) [Example 102, Methyl 6-(cyclopropanecarboxamido)-4-((5-(2,2-difluoro-1-(methoxy-d3)ethyl)-4-methoxy-1-(methyl-d3)-1H-indazol-3-yl)amino)nicotinate]	18.5 nM	0.19 nM	99.81	3.9 nM	29.8 µL/min/mg	0.776 h	
[2H]C([2H])([2H])O[C@@H](c1ccc2c(c(Nc3cc(NC(=O)C4CC4)ncc3C(=O)OC)nn2C([2H])([2H])[2H])c1OC)C(F)(F)F [Example 53B, Methyl (S)-6-(cyclopropanecarboxamido)-4-((4-methoxy-1-(methyl-d3)-5-(2,2,2-trifluoro-1-(methoxy-d3)ethyl)-1H-indazol-3-yl)amino)nicotinate]		0.15 nM		2.84 nM	13.2 µL/min/mg	1.75 h	
[2H]C([2H])([2H])OC(c1ccc2c(c(Nc3cc(NC(=O)C4CC4)ncc3C(=O)OC)nn2CCOC)c1OC)C(F)(F)F (stereo not drawn) [Example 157, Methyl 6-(cyclopropanecarboxamido)-4-((4-methoxy-1-(2-methoxyethyl)-5-(2,2,2-trifluoro-1-(methoxy-d3)ethyl)-1H-indazol-3-yl)amino)nicotinate]		0.15 nM			25.8 µL/min/mg	0.897 h	9.21 nM
[2H]C([2H])([2H])NC(=O)c1cnc(NC(=O)[C@@H]2C[C@@H]2F)cc1Nc1cnn2ccc(COC)c(OC)c12 [Example 17, 6-((1S,2S)-2-fluorocyclopropane-1-carboxamido)-4-((4-methoxy-5-(methoxymethyl)pyrazolo[1,5-a]pyridin-3-yl)amino)-N-(methyl-d3)nicotinamide]	12.7 nM	0.102 nM	125.0	84.3 nM	12.3 µL/min/mg	1.87 h	
[2H]C([2H])([2H])NC(=O)c1cnc(NC(=O)C2CC2)cc1Nc1cnn2cnc(OC)c(OC)c12 [Example 35, 6-(Cyclopropanecarboxamido)-4-((4,5-dimethoxypyrazolo[1,5-c]pyrimidin-3-yl)amino)-N-(methyl-d3)nicotinamide]	92.3 nM	8.27 nM	11.2	2340 nM	5.72 µL/min/mg	4.04 h	
CNC(=O)c1nnc(NC(=O)C2CC2)cc1Nc1cn(C)c2cccc(OC)c12 [Example 1, 6-(Cyclopropanecarboxamido)-4-((4-methoxy-1-methyl-1H-indol-3-yl)amino)-N-methylpyridazine-3-carboxamide]	19.5 nM	2.33 nM	8.4	1170 nM			
[2H]C([2H])([2H])NC(=O)c1cnc(NC(=O)[C@@H]2C[C@@H]2F)cc1Nc1cnn2ccc(C(F)(F)F)c(OC)c12 [Example 11, 6-((1S,2S)-2-fluorocyclopropane-1-carboxamido)-4-((4-methoxy-5-(trifluoromethyl)pyrazolo[1,5-a]pyridin-3-yl)amino)-N-(methyl-d3)nicotinamide]	17.6 nM	0.182 nM	96.5	54.5 nM			
[2H]C([2H])([2H])OCc1ccc2c(c(Nc3cc(NC(=O)C4CC4)ncc3C(F)(F)CC)nn2C)c1OC [Example 172, N-(5-(1,1-difluoropropyl)-4-((4-methoxy-5-((methoxy-d3)methyl)-1-methyl-1H-indazol-3-yl)amino)pyridin-2-yl)cyclopropanecarboxamide]	18.2 nM	0.79 nM	22.99	21.9 nM			
[2H]C([2H])([2H])NC(=O)c1cnc(NC(=O)C2CC2)cc1Nc1cnn2cnc(C(C)C(F)(F)F)c(OC)c12 (stereo not drawn) [Example 37, 6-(Cyclopropanecarboxamido)-4-((4-methoxy-5-(1,1,1-trifluoropropan-2-yl)pyrazolo[1,5-c]pyrimidin-3-yl)amino)-N-(methyl-d3)nicotinamide]	111 nM	1.65 nM	67.1	768 nM	12.3 µL/min/mg	1.88 h	
COc1c([C@H](OC)C(F)(F)F)ccn2ncc(Nc3cc(NC(=O)C4CC4)ncc3C(O)C(F)(F)F)c12 (stereo partly drawn) [Example 90, N-(4-((4-methoxy-5-((S)-2,2,2-trifluoro-1-methoxyethyl)pyrazolo[1,5-a]pyridin-3-yl)amino)-5-(2,2,2-trifluoro-1-hydroxyethyl)pyridin-2-yl)cyclopropanecarboxamide]	> 298 nM	> 298 nM		> 5000 nM			
